For data set [1] the following is noted: oral exposure, within 24-96 hours of ingestion; cited from earlier work.
Data set [2] concerns the target acetylcholinesterase (AChE) (Homo sapiens, UniProt P22303). In words: In vitro acetylcholinesterase activity assay. Format: biochemical. Here is the method: In the AChE assay, a reaction mixture containing DCB was incubated at 20° C. in the dark for 10 min, and 10 μL of AChE solution was then added. For measuring in vitro AChE activity, the test solutions contained DCB at various concentrations, including 5, 25, 50, 100, 200, and 400 µg/mL (FIGS. 13A and 13B). After AChE was added, the reaction mixture was incubated at 20° C. for 10 min, and the absorbance was measured at 405 nm.

The test system of data set [3] is Staphylococcus haemolyticus. In words: Agar disk diffusion on urine cultures, Staphylococcus haemolyticus. Format: cell-based. An excerpt:
(§1) Agar disk diffusion testing was used for antimicrobial susceptibility testing. The test provides qualitative results by categorizing susceptible, intermediate or resistant bacteria. Agar disk diffusion testing cannot distinguish bactericidal and bacteriostatic effects. Moreover, the agar disk-diffusion method is not appropriate to determine the minimum inhibitory concentration (MIC), as it is impossible to quantify the amount of the antimicrobial agent diffused into the agar medium. The advantages of this method, mainly simplicity and low cost, have contributed to its common use for the antimicrobial screening of plant extracts, essential oils, and other drugs.
(§2) The study has been performed on 47 urine samples collected from patients diagnosed with urinary tract infection (UTI), before instituting any type of therapy. Several types of pathogens were identified from the urine cultures performed: Escherichia coli-34 cases; Klebsiella pneumoniae-six cases; Proteus mirabilis-one case; Staphylococcus haemolyticus-one case; Enterococcus faecalis-two cases; Candida albicans-three cases. The susceptibility testing of the pathogens has been performed using DCB-impregnated microdisks to identify the optimal value that induces a significant inhibition of microbial culture development, compared to certified antibiotic/antifungal microdisks. The antibiogram/antifungal was performed on the Müller-Hinton (MH)/Sabouraud medium, and the results obtained using DCB-impregnated microdisks are presented in the Table 7, compared to the action of the reference microdisks.
(A growth-free zone around the sample is the usual read-out of agar diffusion tests.)

Data set [4] relates to Enterococcus faecalis. In words: Agar disk diffusion on urine cultures, Enterococcus faecalis. The data set is classed as cell-based.
Excerpt: as §1, §2

The test system of data set [5] is Klebsiella pneumoniae. In words: Agar disk diffusion on urine cultures, Klebsiella pneumoniae. The data set is classed as cell-based.
Excerpt: as §1, §2

Data set [6] relates to Proteus mirabilis. In words: Agar disk diffusion on urine cultures, Proteus mirabilis. The data set is classed as cell-based.
Excerpt: as §1, §2

Data set [7] concerns Escherichia coli. In words: Agar disk diffusion on urine cultures, Escherichia coli. Format: cell-based.
Excerpt: as §1, §2

The subject of data set [8] is L929 cells. Format: cell-based. The note with it: mouse, 24 h. On the procedure: In vitro DCB cytotoxicity: The viability of L929 cells treated for 24 hours with different concentrations of DCB was tested by the 3-(4,5-dimethylthiazol-2-yl)-2,5-diphenyltetrazolium bromide (MTT) assay. The MTT assay is commonly used for cytotoxicity, viability, and cell proliferation studies. The treatment of cells with MTT allows the assessment of oxidative metabolism and cellular response to external factors that can have a positive or negative effect on cell survival in culture. This quantitative colorimetric method is based on the reduction of the yellow-colored compound MTT to a dark blue formazan. The reduction of MTT, achieved by mitochondrial enzymes, e.g., succinate dehydrogenase, is directly proportional to the number of viable cells, being an index of cellular/mitochondrial integrity. The optical density is evaluated spectrophotometrically, resulting in a direct relationship between absorbance, dye concentration, and the number of viable and metabolically active cells.
In multi-well plates, L929 cells were plated at a cell concentration of 10^4 cells/cm^2. MTT (1 mg/ml, in a culture medium without serum) and DCB was added to each well. […] The resulting solution was densitometered at 550 nm, there being a direct proportional relationship between the recorded optical density and the number of metabolically active cells.

A short description of data set [9]: physchem.
The subject of data set [10] is BALB/c mice. Description: In vivo DCB toxicity (acute, subchronic, chronic). On the procedure: (§3) In vivo DCB toxicity: The laboratory animals and the experimental protocol for determining acute, subchronic and chronic toxicity were established in accordance with the Organization for Economic Co-operation and Development (OECD) Guidelines for Testing of Chemicals. The toxicodynamic experiment was performed on groups of 10 BALB/c mice, eight weeks old, with an average weight of 25 g, the number of females and males being equally distributed (five for each group), which were administered different doses of DCB, at various intervals, as follows: • (i) for the acute experiment (at 24 hours): • (a) per os (p.o.), by oral gavage, five different doses of DCB in distilled water: 5 mg/kg body weight (b.w.), 50 mg/kg b.w., 300 mg/kg b.w., 2000 mg/kg b.w. and 5000 mg/kg b.w.; • (b) intra-peritoneal (i.p), a single dose of DCB, in saline: 50 mg/kg b.w.; • (ii) for the subacute experiment (lasting 28 days), three different daily doses of DCB in drinking water: 50 mg/kg b.w., 300 mg/kg b.w. and 1000 mg/kg b.w.; • (iii) for the chronic experiment (lasting 90 days), three different daily doses of DCB in drinking water: 50 mg/kg b.w., 300 mg/kg b.w. and 1000 mg/kg b.w. Throughout the duration of the experiment, the condition of the animals was monitored daily, at the same hour every day (during morning). Also, the animals were maintained in standard conditions of temperature, humidity, and lighting. Food and water were administered ad libitum. Standard Conditions Include: • A 14-hour light/10-hour dark cycle or 12 light/12 dark cycle; • A temperature of 65-75° F. (~18-23° C.); and • A humidity of 40-60%.
(§4) The control mice were monitored and maintained under the same conditions, only that instead of the DCB they received: • (i) for the acute experiment: (a) distilled water, p.o., by oral gavage and (b) saline, i.p., respectively; • (ii) for the subacute experiment and for the chronic one: only the drinking water normally consumed. […]

Data set [11] is described as follows: In vivo DCB toxicity (acute, subchronic, chronic). Also noted: species or system mice. The note with it: both sexes, BALB/c, mouse, in vivo, po; acute, p.o. administration in mice; read-out: median lethal dose (LD50). Here is the method: as §3, §4
A short description of data set [12]: DPPH scavenging assay. The data set is classed as biochemical.
Data set [13] relates to Candida albicans. In words: Agar disk diffusion on urine cultures, Candida albicans. The data set is classed as cell-based.
Excerpt: as §1, §2

Data set [14] has as its system pathogens identified from urine cultures of patients with urinary tract infection. In words: Antibiotic/antifungal screening on urine cultures, all pathogens together. The data set is classed as cell-based.
Excerpt: as §1
as §2, with “The antibiogram/antifungal was performed on the Müller-Hinton (MH)/Sabouraud medium, and the results obtained using DCB-impregnated microdisks are presented in the Table 7, compared to the action of the reference microdisks.” left out

The format of data set [15] is in vitro ADME. From the text:
FIG. 11 is the in vitro simulation of DCB digestion: stomach (gastric phase, at pH 1.2 and pH 4.5) and duodenum (small intestinal phase, at pH 7.2). (DCB: Chlorogenoborate diester complex);
DCB is protected from acids or/and enzymes in the stomach and small intestine. Chlorogenic acids are, generally, resistant to acid environment and digestive enzymes. […] The DCB complex is dissociated in the colon by borate group transfer to cis-diol sugars, e.g., fructose and sialic acid, in bacteria in the microbiome in the gut mucus membrane. The sugar/borate complexes have a high association constant. […] At a gastric pH of 1.2, DCB undergoes about 50% degradation. When there is food in the stomach, after a meal, the stomach pH can raise to as high as 4-5. Under conditions prevailing after a meal (pH 4.5), DCB undergoes <6% degradation. Under conditions prevailing in the intestines (pH 7.2), DCB undergoes <4% degradation. Thus, when administered with a meal, DCB is protected in the gastrointestinal tract and works as a classical prebiotic. Alternatively, DCB may be administered in a dosage form with an enteric coating which is stable and protects DCB from stomach acids, but which dissolves or breaks down at pH values in the intestines. Suitable enteric polymers include methyl (meth)acrylate-(meth)acrylic acid copolymers, cellulose acetate phthalate (CAP), cellulose acetate succinate, hydroxypropyl methyl cellulose phthalate, hydroxypropyl methyl cellulose acetate succinate, polyvinyl acetate phthalate, and similar polymers.

Where two headings read alike, the source gives them in different places.

Sequence of acetylcholinesterase (AChE) (P22303 32-614, species assumed): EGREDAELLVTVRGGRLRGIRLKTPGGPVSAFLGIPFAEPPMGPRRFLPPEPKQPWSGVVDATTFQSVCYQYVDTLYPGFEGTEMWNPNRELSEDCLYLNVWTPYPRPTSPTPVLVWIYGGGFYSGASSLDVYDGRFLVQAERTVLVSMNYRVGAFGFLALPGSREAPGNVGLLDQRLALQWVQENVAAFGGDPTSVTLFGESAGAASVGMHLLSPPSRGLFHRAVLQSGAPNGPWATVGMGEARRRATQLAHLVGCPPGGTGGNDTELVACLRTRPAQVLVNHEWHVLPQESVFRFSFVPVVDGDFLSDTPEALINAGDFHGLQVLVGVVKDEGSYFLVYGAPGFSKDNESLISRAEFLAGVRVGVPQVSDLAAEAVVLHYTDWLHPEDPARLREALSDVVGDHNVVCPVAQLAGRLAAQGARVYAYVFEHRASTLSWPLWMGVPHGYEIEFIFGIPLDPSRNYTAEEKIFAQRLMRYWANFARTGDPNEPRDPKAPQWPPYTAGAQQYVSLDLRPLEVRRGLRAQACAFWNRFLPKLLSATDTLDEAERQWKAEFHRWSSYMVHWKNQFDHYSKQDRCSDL

`OB(O)O` [BA, Boric acid]: in data set [1], the BA absorbed is 81-95%.

Turning to `O=C(/C=C/c1ccc(O)c(O)c1)O[C@@H]1C[C@](O)(C(=O)O)C[C@@H](O)[C@H]1O` [CA, Chlorogenic acid, reference compound], in data set [2], the midpoint of inhibition, the IC50, lay at 243 µM. In addition, the inhibition (as a rule, the share of the control response that was lost under treatment) at 110 µg/mL in data set [2] (read-out: inhibition of AChE activity) is greater than 80%.

On to `CO[C@@]1(NC(=O)Cc2cccs2)C(=O)N2C(C(=O)O)=C(COC(N)=O)CS[C@@H]21` [Cefoxitin, reference compound], for which the “Inhibition diameter (Ø, mm] of microbial culture” value (“Inhibition diameter” for short) in data set [3] (certified microdisk) is 25 mm; in data set [4] (certified microdisk), 23-26 mm.

Regarding `O=C(O)c1cn(C2CC2)c2cc(N3CCNCC3)c(F)cc2c1=O` [Ciprofloxacin, reference compound], the “Inhibition diameter” value in data set [5] (certified microdisk) is 27-34 mm; in data set [6] (certified microdisk) it was 33 mm; in data set [7] (certified microdisk), 28-35 mm.

For `O=C(/C=C/c1ccc2c(c1)O[B-]1(O2)Oc2ccc(/C=C/C(=O)O[C@@H]3C[C@](O)(C(=O)O)C[C@@H](O)[C@H]3O)cc2O1)O[C@H]1C[C@@](O)(C(=O)O)C[C@H](O)[C@@H]1O` (stereo partly shown) [DCB, diester chlorogenoborate], in [2], the IC50 – broadly, the concentration that gives 50% inhibition – is 39.5 µM. In addition, the “factor of AChE inhibition relative to CA” value in [2] is given as “about 3.4”. The “Inhibition diameter” value in data set [5] (0.025 μM DCB microdisk) is 0 mm; in data set [5] (2.5 μM DCB microdisk), 5-7 mm; in data set [5] (5.0 μM DCB microdisk) it was 8-15 mm; in data set [5] (50 μM DCB microdisk), 28-36 mm; in data set [3] (0.025 μM DCB microdisk), 0 mm; in [3] (2.5 μM DCB microdisk) it was 0 mm. For the same compound, the “Inhibition diameter” value in [3] (5.0 μM DCB microdisk) is 11 mm; in [3] (50 μM DCB microdisk) it was 27 mm; in data set [4] (0.025 μM DCB microdisk) it was 0 mm; in [4] (2.5 μM DCB microdisk), 0 mm; in [4] (5.0 μM DCB microdisk) it was 12-14 mm; in [4] (50 μM DCB microdisk), 26-29 mm. In addition, the “Inhibition diameter” value in [13] (0.025 μM DCB microdisk) is on record as 0 mm; in [13] (2.5 μM DCB microdisk) it was 0 mm; in data set [13] (5.0 μM DCB microdisk) it was 12-18 mm; in data set [13] (50 μM DCB microdisk), 37-40 mm; in [6] (0.025 μM DCB microdisk), 0 mm; in data set [6] (2.5 μM DCB microdisk), 0 mm. For the same compound, the “Inhibition diameter” value is given as 15 mm in data set [6] (5.0 μM DCB microdisk); 35 mm in data set [6] (50 μM DCB microdisk); 0 mm in data set [7] (0.025 μM DCB microdisk); 6-8 mm in data set [7] (2.5 μM DCB microdisk); 8-14 mm in [7] (5.0 μM DCB microdisk); 29-37 mm in data set [7] (50 μM DCB microdisk). For the same compound, the “impact on cell viability compared with 5% aqueous DMSO control” value in data set [8] is “much less impact on MTT concentration, and thus cell viability, than a negative control treated with 5% aqueous DMSO”. For the same compound, in data set [9], the pKa (commonly the negative logarithm of the acid dissociation constant) is roughly 4. The “histopathology of internal organs” value in data set [10] (acute (24 hours), subchronic (28 days) and chronic (90 days) experiments) is listed as “normal aspects were highlighted for all internal organs analyzed”. The “acute toxicity class (OECD)” value in data set [10] (p.o. administration in mice) is “Category V, practically non-toxic”. Also, the LD50 (as a rule, the dose expected to kill half of the subjects tested) at 24 h in data set [11] was greater than 5000 mg/kg. For the same compound, in data set [12], the “antioxidant activity relative to CA” value is “approximately six times more antioxidant activity than CA”. Besides, the “antimicrobial activity compared with certified microdisks” value in [14] (50 μM DCB-impregnated microdisks) is given as “comparable to, or superior to, that of the certified microdisks”. For the same compound, in data set [14] (0.025 to 2.5 μM DCB), the “influence on the growing pathogens” value is on record as “little or no influence on the growing pathogens”. Further, the figures for the degradation entry in data set [15] (pH 1.2), in [15] (pH 4.5) and in data set [15] (pH 7.2) were “about 50%”, less than 6% and less than 4%, respectively.

`OC(Cn1cncn1)(Cn1cncn1)c1ccc(F)cc1F` [Fluconazole, reference compound]: in data set [13] (certified microdisk), the “Inhibition diameter” value is listed as 29-33 mm.

Source of the values: US12721857B2 (priority 2021, dated 2026).
